Tests used:
Cbl-b [1] = target: T1, Cbl-b (Homo sapiens (Human), UniProt Q13191); experiment: Cbl-b displacement assay (Cbl-b inhibition assay), TR-FRET probe displacement, Biological Example 1; format: binding
Summary of the method: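 TR-FRET displacement of a BODIPY FL-labelled inhibitor probe (150 nM, ~EC40) from biotin-Avitag truncated Cbl-b, detected via 2 nM streptavidin-Tb, 1 h, room temperature. Compound in 1% DMSO pre-incubated 1 h with Cbl-b at 0.5 nM (High) or 0.125 nM (Low) in 20 mM HEPES pH 7.5, 150 mM NaCl, 0.5 mM TCEP.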

Cbl-b [2] = target: T1, Cbl-b; experiment: Cbl-b displacement assay (Cbl-b inhibition assay), Biological Example 8; format: binding; conditions: 0.125 nM Cbl-b final concentration (Low); Table 8-1; read-out: Cbl-b IC50 (Low)
Description: (§1) Candidate compounds were evaluated for their ability to bind and inhibit Cbl-b, an E3 ubiquitin-protein ligase, as evidenced by their ability to displace a fluorophore-labeled probe bound to Cbl-b.
(§2) The ability of candidate compounds to displace a known inhibitor and thereby inhibit Cbl-b activity was measured by monitoring the interaction of Cbl-b with a fluorophore-labeled probe in the presence of the candidate compound. A truncated variant of Cbl-b (UniProt number Q13191) containing residues 36-427 and an Avitag at its N-terminus was co-expressed with BirA biotin ligase and purified using a standard protocol (see Dou et al., Nature Structural and Molecular Biology 8: 982-987, 2013; Avidity LLC).
(§3) Fluorescently-labeled inhibitor probe was synthesized and tagged with BODIPY FL. Cbl-b displacement assays were performed in a 384-well plate at room temperature in a 10 μl reaction volume by pre-incubating 0.5 nM Cbl-b or 0.125 nM Cbl-b (final concentration, indicated as “High” and “Low”, respectively) in an assay buffer containing 20 mM HEPES pH 7.5, 150 mM NaCl, 0.01% Triton X-100, 0.01% BSA and 0.5 mM TCEP in the presence of a candidate compound in 1% DMSO (final concentration) for 1 hour. After incubation in the presence of the candidate compound, the plate was incubated for an additional 1 hour in the presence of an approximate EC40 binding saturation consisting of 150 nM fluorescently-labeled inhibitor probe and 2 nM Streptavidin-Terbium (Cisbio) (final concentrations). Following the 1 hour incubation, the plates were read for TR-FRET signal at 520/620 nM using an Envision plate reader (Perkin Elmer).
(§4) The resulting data for the Cbl-b activity assays were analyzed using standard methods to determine the IC50 values for the tested compounds.

Cbl-b [3] = target: T1, Cbl-b; experiment: Cbl-b displacement assay (Cbl-b inhibition assay), Biological Example 12; format: binding; conditions: 0.125 nM Cbl-b final concentration (Low); Table 12-1; read-out: Cbl-b IC50 (Low)
Description: as §1, §2, §3, §4

[4] = tested on: primary human total T-cells; experiment: Primary human total T-cell activation: IL-2 secretion, Biological Example 2; format: cell-based; conditions: 48 hours, fold change over baseline; for fold induction at 1 µM: inhibitor 1 μM
[5] = tested on: primary human total T-cells; experiment: Primary human total T-cell activation: CD25 surface staining, Biological Example 2; format: cell-based; conditions: 48 hours, fold change over baseline; for fold induction at 1 µM: inhibitor 1 μM
[6] = tested on: primary human total T-cells; experiment: Primary human total T-cell activation: IL-2 secretion, Biological Example 9; format: cell-based; conditions: 48 hours, fold change over baseline; for fold induction at 0.3 µM: inhibitor 0.3 μM; for fold induction at 0.3 µM / fold induction at 3 µM: Table 9-1; for fold induction at 1 µM: inhibitor 1 μM; for fold induction at 3 µM: inhibitor 3 μM
[7] = tested on: primary human total T-cells; experiment: Primary human total T-cell activation: CD25 surface staining, Biological Example 9; format: cell-based; conditions: 48 hours, fold change over baseline; for fold induction at 0.3 µM: inhibitor 0.3 μM; for fold induction at 0.3 µM / fold induction at 3 µM: Table 9-1; for fold induction at 1 µM: inhibitor 1 μM; for fold induction at 3 µM: inhibitor 3 μM
[8] = tested on: primary human total T-cells; experiment: Primary human total T-cell activation: IL-2 secretion, Biological Example 13; format: cell-based; conditions: 48 hours, fold change over baseline; for fold induction at 0.3 µM: inhibitor 0.3 μM; for fold induction at 0.3 µM / fold induction at 3 µM: Table 13-1; for fold induction at 1 µM: inhibitor 1 μM; for fold induction at 3 µM: inhibitor 3 μM
[9] = tested on: primary human total T-cells; experiment: Primary human total T-cell activation: CD25 surface staining, Biological Example 13; format: cell-based; conditions: 48 hours, fold change over baseline; for fold induction at 0.3 µM: inhibitor 0.3 μM; for fold induction at 0.3 µM / fold induction at 3 µM: Table 13-1; for fold induction at 1 µM: inhibitor 1 μM; for fold induction at 3 µM: inhibitor 3 μM
[10] = 0.125 nM Cbl-b final concentration (Low), read-out: Cbl-b activity IC50 (Low)
[11] = anti-CD3/anti-CD28 co-stimulation, inhibitor 0.3 μM
[12] = anti-CD3/anti-CD28 co-stimulation
[13] = anti-CD3/anti-CD28 co-stimulation, Table 9-1, read-out: IL-2 secretion CD3/CD28 1 μM
[14] = anti-CD3 alone, Table 9-1, read-out: IL-2 secretion CD3 1 μM
[15] = anti-CD3/anti-CD28 co-stimulation, Table 9-1, read-out: CD25 staining CD3/CD28 1 μM
[16] = anti-CD3 alone, Table 9-1, read-out: CD25 staining CD3 1 μM
[17] = anti-CD3/anti-CD28 co-stimulation, Table 13-1, read-out: IL-2 secretion CD3/CD28 1 μM
[18] = anti-CD3 alone, Table 13-1, read-out: IL-2 secretion CD3 1 μM
[19] = anti-CD3/anti-CD28 co-stimulation, Table 13-1, read-out: CD25 staining CD3/CD28 1 μM
[20] = anti-CD3 alone, Table 13-1, read-out: CD25 staining CD3 1 μM

T1 sequence (Q13191 36-427): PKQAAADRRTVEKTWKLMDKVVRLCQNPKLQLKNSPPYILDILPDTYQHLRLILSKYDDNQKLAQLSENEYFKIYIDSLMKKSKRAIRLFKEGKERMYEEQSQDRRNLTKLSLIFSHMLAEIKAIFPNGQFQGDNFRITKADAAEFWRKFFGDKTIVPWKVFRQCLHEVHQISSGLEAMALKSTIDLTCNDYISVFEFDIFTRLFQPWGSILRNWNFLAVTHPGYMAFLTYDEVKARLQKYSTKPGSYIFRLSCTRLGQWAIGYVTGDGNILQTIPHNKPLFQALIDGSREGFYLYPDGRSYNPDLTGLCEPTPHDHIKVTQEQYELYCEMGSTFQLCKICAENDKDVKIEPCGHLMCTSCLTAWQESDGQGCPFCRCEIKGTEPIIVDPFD

Row | Compound | IC50 (Cbl-b [2]) | IC50 (Cbl-b [3]) | fold induction at 0.3 µM [6, 12] | fold induction at 1 µM [6, 13] | fold induction at 1 µM [6, 14] | fold induction at 0.3 µM [7, 12] | fold induction at 1 µM [7, 15] | fold induction at 1 µM [7, 16] | fold induction at 0.3 µM [8, 12] | fold induction at 1 µM [8, 17] | fold induction at 1 µM [8, 18] | fold induction at 0.3 µM [9, 12] | fold induction at 1 µM [9, 19] | fold induction at 1 µM [9, 20] | fold induction at 3 µM ([6]; anti-CD3 alone) | fold induction at 3 µM ([7]; anti-CD3 alone) | fold induction at 3 µM ([8]; anti-CD3 alone) | fold induction at 3 µM ([9]; anti-CD3 alone) | further results
1 | C[C@@H]1CN(Cc2cc3c(c(C4CC4)n2)CN(c2cccc(C4(Cc5nncn5C)COC4)c2)C3=O)CCC1(F)F [Compound 34, (R)-4-Cyclopropyl-6-((4,4-difluoro-3-methylpiperidin-1-yl)methyl)-2-(3-(3-((4-methyl-4H-1,2,4-triazol-3-yl)methyl)oxetan-3-yl)phenyl)-2,3-dihydro-1H-pyrrolo[3,4-c]pyridin-1-one] | 1 to 5 nM | 1 to 5 nM | – | – | – | – | – | – | – | – | – | – | – | – | – | – | – | – | IC50 (Cbl-b [1]; [10]): 1 to 5 nM
2 | C[C@H]1CCCN([C@H](C)c2cc3c(c(C4CC4)n2)CN(c2cccc(C4(Cc5nncn5C)COC4)c2)C3=O)C1 [Compound 52, 4-cyclopropyl-2-(3-(3-((4-methyl-4H-1,2,4-triazol-3-yl)methyl)oxetan-3-yl)phenyl)-6-((R)-1-((S)-3-methylpiperidin-1-yl)ethyl)-2,3-dihydro-1H-pyrrolo[3,4-c]pyridin-1-one] | – | – | – | – | – | – | – | – | – | – | – | – | – | – | – | – | – | – | IC50 (Cbl-b [1]; [10]): 1 to 5 nM; IC50 (Cbl-b [1]; Cbl-b concentration (High or Low) not given, read-out: IC50 values in the Cbl-b inhibition assay of Biological Example 1): 1 to 5 nM; fold induction at 0.3 µM [4, 11]: > 15; fold induction at 1 µM ([4]; anti-CD3/anti-CD28 co-stimulation, read-out: IL-2 secretion CD3/CD28 1 μM): > 15; fold induction at 1 µM ([4]; anti-CD3 alone, read-out: IL-2 secretion CD3 1 μM): > 0.66; fold induction at 3 µM ([4]; anti-CD3 alone, inhibitor 3 μM): > 0.66; fold induction at 0.3 µM [5, 11]: > 1.39; fold induction at 1 µM ([5]; anti-CD3/anti-CD28 co-stimulation, read-out: CD25 staining CD3/CD28 1 μM): > 1.39; fold induction at 1 µM ([5]; anti-CD3 alone, read-out: CD25 staining CD3 1 μM): > 1.14; fold induction at 3 µM ([5]; anti-CD3 alone, inhibitor 3 μM): > 1.14
3 | C[C@@H]1[C@@H](c2nncn2C)[C@H]1c1cccc(N2Cc3c(cccc3C(F)(F)F)C2=O)c1 [Compound 54] | > 5 nM | > 5 nM | < 10 | < 10 | < 0.33 | 1.25 to 1.39 | 1.25 to 1.39 | > 1.14 | < 10 | < 10 | < 0.33 | 1.25 to 1.39 | 1.25 to 1.39 | > 1.14 | – | – | – | – | –
4 | C[C@@H](c1cc2c(c(C(F)(F)F)c1)CN(c1cccc(C3(Cc4nncn4C)COC3)c1)C2=O)N1CC[C@H](F)C1 [Compound 55] | 1 to 5 nM | 1 to 5 nM | > 15 | > 15 | 0.34 to 0.66 | > 1.39 | > 1.39 | > 1.14 | > 15 | > 15 | 0.34 to 0.66 | > 1.39 | > 1.39 | > 1.14 | 0.34 to 0.66 | > 1.14 | 0.34 to 0.66 | > 1.14 | –
5 | C[C@H](c1cc2c(c(C(F)(F)F)c1)CN(c1cccc(C3(Cc4nncn4C)COC3)c1)C2=O)N1CC[C@H](F)C1 [Compound 56] | > 5 nM | > 5 nM | 10 to 15 | 10 to 15 | < 0.33 | 1.25 to 1.39 | > 1.39 | > 1.14 | 11 to 15 | 11 to 15 | < 0.33 | 1.25 to 1.39 | > 1.39 | > 1.14 | – | – | – | – | –
6 | Cn1cnnc1C(F)(F)[C@](C)(F)c1cccc(N2Cc3c(cc(CN4CC[C@H](F)C4)cc3C(F)(F)F)C2=O)c1 [Compound 57] | > 5 nM | > 5 nM | < 10 | 10 to 15 | < 0.33 | 1.25 to 1.39 | > 1.39 | > 1.14 | < 10 | 11 to 15 | < 0.33 | 1.25 to 1.39 | > 1.39 | > 1.14 | – | – | – | – | –
7 | Cn1cnnc1C(F)(F)[C@](C)(F)c1cccc(N2Cc3c(cc(CN4CCC(F)(F)C4)cc3C(F)(F)F)C2=O)c1 [Compound 58] | > 5 nM | > 5 nM | < 10 | < 10 | < 0.33 | < 1.24 | 1.25 to 1.39 | < 1.04 | < 10 | < 10 | < 0.33 | < 1.24 | 1.25 to 1.39 | < 1.04 | – | – | – | – | –
8 | Cn1cnnc1CC1(c2cccc(N3Cc4c(cc(CN5CCC6(CC6)C5)cc4C(F)(F)F)C3=O)c2)COC1 [Compound 59] | 1 to 5 nM | 1 to 5 nM | > 15 | > 15 | < 0.33 | 1.25 to 1.39 | > 1.39 | > 1.14 | > 15 | > 15 | < 0.33 | 1.25 to 1.39 | > 1.39 | > 1.14 | 0.34 to 0.66 | > 1.14 | 0.34 to 0.66 | > 1.14 | –
9 | C[C@@H](c1cc2c(c(C(F)(F)F)c1)CN(c1cccc(C3([C@@H](F)c4nncn4C)COC3)c1)C2=O)N1CCC2(CC2)C1 [Compound 60] | 1 to 5 nM | 1 to 5 nM | > 15 | > 15 | 0.34 to 0.66 | > 1.39 | > 1.39 | > 1.14 | > 15 | > 15 | 0.34 to 0.66 | > 1.39 | > 1.39 | > 1.14 | 0.34 to 0.66 | > 1.14 | 0.34 to 0.66 | > 1.14 | –
10 | C[C@@H](c1cc2c(c(C(F)(F)F)c1)CN(c1cccc(C3(Cc4nncn4C)COC3)c1)C2=O)N1CCC(F)CC1 [Compound 61] | 1 to 5 nM | 1 to 5 nM | > 15 | > 15 | 0.34 to 0.66 | > 1.39 | > 1.39 | > 1.14 | > 15 | > 15 | 0.34 to 0.66 | > 1.39 | > 1.39 | > 1.14 | 0.34 to 0.66 | > 1.14 | 0.34 to 0.66 | > 1.14 | –

— patent US11464802B2, “3-substituted piperidine compounds for Cbl-b inhibition, and use thereof” (Nurix Therapeutics, Inc., priority 2019, dated 2022)
